For series [1] the following is noted: Crystal; DTA.
A short description of series [2]: Molar enthalpy of transition or fusion. The conditions noted are these: Crystal; DSC.

± gives the expanded uncertainty stated by the source.

As for `O=C(c1ccccc1)C(C(=O)c1ccccc1)[C@H](C[N+](=O)[O-])c1ccccc1`, in series [1], the Normal melting temperature came to 135.60 ± 0.5 °C. In series [2], the “Molar enthalpy of transition or fusion” value came out at 7.65 ± 0.217 kcal/mol.

Source of the values: the NIST ThermoML archive (doi:10.1016/j.tca.2014.01.028).
